Data taken from US20040249133A1, “Use of lipopeptides or lipoproteins for treating lung infections and lung tumours” (priority 2000, published 2004).

Legend:
[1] = intraperitoneal injection of a few μg; cited from earlier work
[2] = test system: rats; assay: Repeated inhalation of MALP-2 by mask in rats; assay type: in vivo, rat; conditions: 30 μg inhaled by mask, six occasions at one-week intervals
Protocol: 2) With the aid of a mask, rats are made to inhale 30 μg doses of MALP-2 on six occasions at one-week intervals.

[3] = test system: rats; assay: Intratracheal instillation of MALP-2 in rats, cells determined by bronchoalveolar lavage (BAL); conditions: 3 μg instilled into the trachea
Protocol: 1) 3 μg of MALP-2 (an S-(2,3-bisacyloxypropyl)-cysteine peptide) are instilled into the trachea of rats. At various times after treatment, cells from the lung lumen are determined by means of bronchoalveolar lavage (BAL).

MALP-2: macrophage-activating lipopeptide (an S-(2,3-bisacyloxypropyl)-cysteine peptide) isolated from Mycoplasma fermentans
leukocyte infiltration [1]: has brought about leukocyte infiltration | clinical condition of the animals [2]: clinically not noteworthy | lymphatic tissue in the bronchial mucosa [2]: increase in the lymphatic tissue | adverse effect on the animals [3]: not detectable | duration of the increase in leukocyte number [3]: lasts for a few days | food consumption, bodyweight, activity and behaviour [3]: not noteworthy | number of leukocytes in the respiratory tracts and the alveolar space (BAL) ([3]; after a few hours): increase in the number of leukocytes
